According to US12472140B2, “Composition and method for transdermal delivery of cannabidiol (CBD) and tetrahydrocannabinol (THC)” (Ovation Science Inc., priority 2020, dated 2025):

Key:
[1] = Release of CBD and THC from the composition, effect of adding surfactant; assay type: physicochemical; conditions: for ratio of release of CBD and THC: numerically THC/CBD
Excerpt: Addition of surfactant can assist in release of CBD and THC from the composition.

[2] = oral doses of 15-20 mg; cited from earlier work
[3] = cited from earlier work
Solubility = conditions: polyvinylpyrrolidone polymers with C16, C20, C30 side chains
[4] = Six-hour Franz Cell study of skin penetration by CBD and THC; conditions: for penetration of CBD relative to THC: at 6 hours
[5] = Example 1, penetrant increased from 1% to 3%
[6] = Example 3, terpene penetrant increased from 1% to 3%

| Compound | release from the composition ([1]; after addition of surfactant) | ratio of release of CBD and THC ([1]; after addition of surfactant) | release from the composition ([1]; before addition of surfactant) | ratio of release of CBD and THC ([1]; before addition of surfactant) | effect on cancer pain [2] | solubility in aqueous buffers [3] | solubility in organic solvents [3] | solubility in hydrophobic polymer delivery system / polymer complexes (Solubility) | penetration [4, 5] | penetration [4, 6] | penetration of CBD relative to THC ([4]; Example 1, 1:1 CBD:THC formulation) | penetration of CBD relative to THC ([4]; Example 3, 1:1 CBD:THC formulation) | actual (penetration) weight ratio of CBD:THC ([4]; Example 3, formulated weight ratio 1:1 CBD:THC) |
| --- | --- | --- | --- | --- | --- | --- | --- | --- | --- | --- | --- | --- | --- |
| CCCCCc1cc(O)c2c(c1)OC(C)(C)[C@H]1CCC(C)=C[C@H]21 [THC, Δ^9-tetrahydrocannabinol] | 21.7% | 0.72 | 3% | 0.7 | decreased cancer pain comparable to 120 mg of codeine | sparingly soluble | readily soluble | readily soluble | 3.2% | 3.2% | – | – | – |
| C=C(C)[C@@H]1CCC(C)=C[C@H]1c1c(O)cc(CCCCC)cc1O [CBD, cannabidiol] | 30.2% | – | 4.3% | – | – | sparingly soluble | readily soluble | readily soluble | 5.8% | 5.8% | ~4 times | ~2 times | 1.98 |
